Patent US10065990B2, “Cyclic peptide compound, and preparation method, pharmaceutical composition and use thereof” (HANGZHOU GUANYU BIO-MEDICAL CO., LTD, priority 2013, dated 2018)
pIC50: −log10 of the molar value. Read-outs that look alike come from different tables or passages of the source.

Tests used:
HDAC2 = HDAC2 (Homo sapiens, UniProt Q92769); assay: HDAC biochemical activity measurement (fluorescent substrate deacetylation);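 note: HDAC2 enzyme with an acetyl-lysine fluorescent substrate, then developer added, fluorescence read at excitation 360 nm and emission 460 nm, inhibition measured across several compound concentrations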; conditions: 37° C. 30 minutes
[1] = system: A549 (human lung cancer cells); assay: MTT cancer cell growth inhibition; assay type: cell-based; conditions: Homo sapiens, A549, 72 h, MTT
In short: (§1)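 Tumour cells in 10% FBS-supplemented DMEM or RPMI 1640 are plated at 1500 per well, dosed next day with compound (10^−5 through 10^−10 M, final) and kept 72 h. MTT is added for 4 h; dissolved formazan is measured at 570 nm and GI50 determined.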

[2] = system: BGC-823 (human gastric cancer cells); assay: MTT cancer cell growth inhibition; assay type: cell-based; conditions: MTT
In short: as §1

[3] = system: Bel-7402 (human hepatoma cells); assay: MTT cancer cell growth inhibition; assay type: cell-based; conditions: Homo sapiens, Bel-7402, 72 h, MTT, 72 hours incubation, Bel-7402 cells; read-out: GI50 Bel-7402
In short: as §1

[4] = system: DU145 (human prostate cancer cells); assay: MTT cancer cell growth inhibition; assay type: cell-based; conditions: MTT
In short: as §1

[5] = system: H1975 (non-small cell lung adenocarcinoma); assay: MTT cancer cell growth inhibition; assay type: cell-based; conditions: Homo sapiens, NCI-H1975, 72 h, MTT, 72 hours incubation, H1975 cells; read-out: GI50 H1975
In short: as §1

[6] = system: HCC827 (human non-small cell lung cancer cells); assay: MTT cancer cell growth inhibition; assay type: cell-based; conditions: Homo sapiens, HCC827, 72 h, MTT, 72 hours incubation, HCC827 cells; read-out: GI50 HCC827
In short: as §1

[7] = system: HT1080 (human fibrosarcoma cells); assay: MTT cancer cell growth inhibition; assay type: cell-based; conditions: Homo sapiens, HT-1080, 72 h, MTT
In short: as §1

[8] = system: Hela (human cervical cancer cells); assay: MTT cancer cell growth inhibition; assay type: cell-based; conditions: Homo sapiens, HeLa, 72 h, MTT
In short: as §1

[9] = system: Huh-7 (human hepatoma cells); assay: MTT cancer cell growth inhibition; assay type: cell-based; conditions: Homo sapiens, Huh-7, 72 h, MTT, 72 hours incubation, Huh-7 cells; read-out: GI50 Huh-7
In short: as §1

[10] = system: K562 (human leukemia cells); assay: MTT cancer cell growth inhibition; assay type: cell-based; conditions: MTT, 72 hours incubation, K562 cells, read-out: GI50 K562
In short: as §1

[11] = system: KBM-5 (human chronic myelogenous leukemia); assay: MTT cancer cell growth inhibition; assay type: cell-based; conditions: Homo sapiens, KBM5, 72 h, MTT, 72 hours incubation, KBM-5 cells; read-out: GI50 KBM-5
In short: as §1

[12] = system: KBM5-T315I (human chronic myelogenous leukemia); assay: MTT cancer cell growth inhibition; assay type: cell-based; conditions: Homo sapiens, 72 h, MTT, 72 hours incubation, KBM5-T315I cells; read-out: GI50 KBM5-T315I
In short: as §1

[13] = system: MCF-7 (human breast cancer cells); assay: MTT cancer cell growth inhibition; assay type: cell-based; conditions: Homo sapiens, MCF7, 72 h
In short: as §1

[14] = system: MDA-MB-231 (breast cancer cells); assay: MTT cancer cell growth inhibition; assay type: cell-based; conditions: Homo sapiens, MDA-MB-231, 72 h, read-out: GI50 MDA-MB-231, MTT, 72 hours incubation, MDA-MB-231 cells
In short: as §1

[15] = system: MOLT-4 (human acute lymphoblastic leukemia cells); assay: MTT cancer cell growth inhibition; assay type: cell-based; conditions: Homo sapiens, MOLT-4, 72 h, MTT
In short: as §1

[16] = system: N-87 (human gastric cancer cells); assay: MTT cancer cell growth inhibition; assay type: cell-based; conditions: Homo sapiens, 72 h, MTT, 72 hours incubation, N-87 cells; read-out: GI50 N-87
In short: as §1

[17] = system: PANC-1 (Pac-1, human pancreatic cancer cells); assay: MTT cancer cell growth inhibition; assay type: cell-based; conditions: Homo sapiens, PANC-1, 72 h, MTT
In short: as §1

[18] = system: SGC-7901 (human gastric cancer cells); assay: MTT cancer cell growth inhibition; assay type: cell-based; conditions: Homo sapiens, SGC-7901, 72 h, MTT, 72 hours incubation, SGC-7901 cells; read-out: GI50 SGC-7901
In short: as §1

[19] = system: U937 (human leukemia cells); assay: MTT cancer cell growth inhibition; assay type: cell-based; conditions: Homo sapiens, U-937, 72 h, MTT
In short: as §1

[20] = system: lncap (prostate cancer cells); assay: MTT cancer cell growth inhibition; assay type: cell-based; conditions: Homo sapiens, LNCaP, 72 h, MTT
In short: as §1

[21] = 72 hours incubation, read-out: GI50 A54
[22] = Homo sapiens, BGC-823, 72 h, 72 hours incubation, read-out: GI50 BG
[23] = Homo sapiens, DU-145, 72 h, 72 hours incubation, read-out: GI50 Du1
[24] = 72 hours incubation, read-out: GI50 HT1
[25] = 72 hours incubation, read-out: GI50 Hela
[26] = 72 hours incubation, read-out: GI50 MCF
[27] = 72 hours incubation, read-out: GI50 Mol
[28] = 72 hours incubation, read-out: GI50 PAN
[29] = 72 hours incubation, read-out: GI50 U93
[30] = 72 hours incubation, read-out: GI50 lnca

Chain of HDAC2 (Q92769 whole entry, species assumed): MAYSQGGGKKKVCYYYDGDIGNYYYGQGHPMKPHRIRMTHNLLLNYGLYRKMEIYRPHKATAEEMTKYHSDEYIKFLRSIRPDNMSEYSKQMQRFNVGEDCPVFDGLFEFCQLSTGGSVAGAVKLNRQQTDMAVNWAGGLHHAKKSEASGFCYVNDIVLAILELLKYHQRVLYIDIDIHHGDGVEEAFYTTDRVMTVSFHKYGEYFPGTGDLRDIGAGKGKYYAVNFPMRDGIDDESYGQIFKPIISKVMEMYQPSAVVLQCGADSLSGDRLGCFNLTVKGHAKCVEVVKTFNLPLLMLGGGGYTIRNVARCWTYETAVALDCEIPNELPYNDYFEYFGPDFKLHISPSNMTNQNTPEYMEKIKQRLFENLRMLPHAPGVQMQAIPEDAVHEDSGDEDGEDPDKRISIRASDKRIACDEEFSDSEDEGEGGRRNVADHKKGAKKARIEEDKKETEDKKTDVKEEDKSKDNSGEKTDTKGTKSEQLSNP

SMILES	pIC50 (HDAC2)	GI50 [1, 21]	GI50 [2, 22]	GI50 [3]	GI50 [4, 23]	GI50 [5]	GI50 [6]	GI50 [7, 24]	GI50 [8, 25]	GI50 [9]	GI50 [11]	GI50 [12]	GI50 [13, 26]	GI50 [14]	GI50 [15, 27]	GI50 [16]	GI50 [17, 28]	GI50 [18]	GI50 [19, 29]	GI50 [20, 30]	also measured
C/C=C1\NC(=O)c2cccc(n2)CNC(=O)C[C@@H](/C=C/CCSC(C)=O)OC(=O)[C@H](Cc2cccc3ccccc23)NC1=O [Compound 17]	7.21	1930 nM	19700 nM	92 nM	5220 nM	42 nM	43 nM	970 nM	11000 nM	61 nM	81 nM	28 nM	22000 nM	79 nM	920 nM	43 nM	23300 nM	53 nM	20100 nM	530 nM	GI50 ([10]; Homo sapiens, K562, 72 h): 32 nM
C/C=C1\NC(=O)c2ccc(F)c(n2)CNC(=O)C[C@@H](/C=C/CCSC(=O)CCCCCCC)OC(=O)[C@H](C)NC1=O [Example 62]	7.57	40 nM	60 nM	83 nM	10 nM	26 nM	83 nM	80 nM	90 nM	31 nM	91 nM	64 nM	60 nM	31 nM	30 nM	64 nM	80 nM	46 nM	20 nM	30 nM	GI50 ([10]; Homo sapiens, K562, 72 h): 16 nM
C/C=C1\NC(=O)c2cc(F)cc(n2)CNC(=O)C[C@@H](/C=C/CCSC(C)=O)OC(=O)[C@H](C(C)C)NC1=O [Compound 94]	7.46	40 nM	–	84 nM	–	34 nM	84 nM	80 nM	60 nM	33 nM	61 nM	35 nM	30 nM	33 nM	30 nM	37 nM	80 nM	41 nM	30 nM	30 nM	GI50 ([2]; 72 hours incubation, read-out: GI50 BG): 30 nM; GI50 ([4]; 72 hours incubation, read-out: GI50 Du1): 30 nM; GI50 [10]: 39 nM
C/C=C1\NC(=O)c2nc(ccc2F)CNC(=O)C[C@@H](/C=C/CCSC(=O)CC)OC(=O)[C@H](C(C)C)NC1=O [Example 45]	7.49	40 nM	50 nM	61 nM	30 nM	34 nM	61 nM	60 nM	90 nM	37 nM	94 nM	59 nM	50 nM	37 nM	30 nM	67 nM	60 nM	43 nM	30 nM	30 nM	GI50 ([10]; Homo sapiens, K562, 72 h): 33 nM
C/C=C1\NC(=O)c2cccc(n2)CNC(=O)C[C@@H](/C=C/CCSC(=O)CCCCCCC)OC(=O)[C@H](C)NC1=O [Compound 11]	7.26	430 nM	410 nM	76 nM	30 nM	42 nM	23 nM	140 nM	120 nM	43 nM	62 nM	26 nM	50 nM	86 nM	10 nM	37 nM	60 nM	35 nM	30 nM	20 nM	GI50 ([1]; 72 hours, present invention, read-out: GI50 A549, a): 430 nM; GI50 ([2]; Homo sapiens, BGC-823, 72 h, 72 hours, present invention, read-out: GI50 BGC823, a): 410 nM; GI50 ([4]; Homo sapiens, DU-145, 72 h, 72 hours, present invention, read-out: GI50 Du145, a): 33 nM; GI50 ([7]; 72 hours, present invention, read-out: GI50 HT1080, a): 140 nM; GI50 ([8]; 72 hours, present invention, read-out: GI50 Hela, a): 120 nM; GI50 ([10]; Homo sapiens, K562, 72 h): 63 nM; GI50 ([13]; 72 hours, present invention, read-out: GI50 MCF7, a): 50 nM; GI50 ([15]; 72 hours, present invention, read-out: GI50 Molt-4, a): 17 nM; GI50 ([17]; 72 hours, present invention, read-out: GI50 PANC-1, a): 60 nM; GI50 ([19]; 72 hours, present invention, read-out: GI50 U937, a): 35 nM; GI50 ([20]; 72 hours, present invention, read-out: GI50 lncap, a): 25 nM
C/C=C1\NC(=O)c2cccc(n2)CNC(=O)C[C@@H](/C=C/CCSC(C)=O)OC(=O)[C@H](Cc2ccccc2)NC1=O [Compound 13]	6.58	50 nM	100 nM	85 nM	20 nM	53 nM	29 nM	200 nM	90 nM	85 nM	84 nM	11 nM	300 nM	81 nM	20 nM	31 nM	70 nM	42 nM	80 nM	100 nM	GI50 ([10]; Homo sapiens, K562, 72 h): 25 nM
